Here are results for six molecules from patent US5668146A, “Symmetrical bis-heteroarylmethoxyphenyliminoxyalkyl carboxylates as inhibitors of leukotriene biosynthesis” (Abbott Laboratories, priority 1996, dated 1997).

Experiment [1] relates to leukotriene biosynthesis. Particulars: oral; Prasit, et al., 1991; cited from earlier work.
Experiment [2] deals with 5-Lipoxygenase From Stimulated LTB4 Formation in Human Polymorphonuclear Leukocytes. Briefly: Inhibition of calcium ionophore-induced LTB4 formation in human polymorphonuclear leukocytes (PMNL). It counts as cell-based. Particulars: calcium ionophore 8.3 μM, 10 min at 37° C., 15 min preincubation. The method, then:
Inhibition of leukotriene biosynthesis was evaluated in an assay involving calcium ionophore-induced LTB4 expressed in human polymorphonuclear leukocytes (PMNL). Human PMNL isolated from heparinized (20 USP units/mL) venous blood (25 mL) obtained from healthy volunteers was layered over an equal volume of Ficoll-Hypaque Mono-Poly Resolving Medium (ICN Flow, Costa Mesa, Calif.) and centrifugated at 400×g for 40 minutes at 20° C. The PMNL was collected, erythrocytes lysed and washed 2× and suspended at 1.0×10^7 cells/mL in Earle's balanced salt solution with 17 mM Earle's HEPES. Aliquots of the cell suspension were preincubated with test compounds dissolved in DMSO (final concentration <2%) for 15 minutes and stimulated with calcium ionophore (final concentration 8.3 μM) for 10 minutes at 37° C. Incubations were stopped with the addition of two volumes of ice cold methanol followed by centrifuging the cell suspensions at 4° C. for 10 minutes at 450×g. The amount of LTB4 in the methanol extract was analyzed by enzyme-linked immunoassay or by HPLC analysis.

In experiment [3] the test system is leukotriene biosynthesis. The experiment is described as follows: Ionophore A-23187-Induced Rat Pleural Inflammation Model (in vivo leukotriene inhibition). Particulars: male rats, dosed one hour prior to intrapleural A23187 (20 μg), lavage after 30 min, eicosanoids by enzyme immunoassay. The method, then: Inhibition of leukotriene biosynthesis in vivo was evaluated using the Ionophore A-23187-Induced Rat Plueral Inflammation Model. Pleural inflammation was induced in male rats following the method of Rao, et al. (Rao, T. S., Currie, J. L., Shaffer, A. F., Isakson, P. C., Evaluation of 5-lipoxygenase Inhibitors, Zileuton, A78773 and ICI D-2 138 in an Ionophore (A-23187) Induced Pleural Inflammation Model in the Rat, Life Sciences, 53, 147 (1993)). Rats were dosed with experimental compounds in 0.2% methocel one hour prior to the intrapleural injection of the calcium ionophore, A23187. The rats where lightly anaesthetized with Pentrane (Abbott Laboratories) and injected intrapleurally with 0.5 ml of 2% ethanol in injectable saline (Abbott Laboratories) containing 20 μg of A23187 (Cal BioChem-Novabiochem). Thirty minutes later the animals were euthanised and the pleural cavities lavaged with ice cold saline (Abbott Laboratories). The lavage fluid was then added to ice cold methanol (final methanol concentration 30%) to lyse cells and precipitate protein. Eicosanoids were determined by enzyme immunoassay by standard methods.

`O=C(O)CSC(CCCc1ccc(Cl)cc1)c1ccc(OCc2ccc3ccccc3n2)cc1` (centres unmarked) [((4-(4-chlorophenyl)-1-(4-(2-quinolylmethoxy)phenyl)butyl)thio)acetic acid]: the “orally active leukotriene biosynthesis inhibitor (in words)” value in experiment [1] is given as “orally active leukotriene biosynthesis inhibitor”.

For the molecule `O=C(O)C=NOC(c1ccc(OCc2ccc3ccccc3n2)cc1)c1ccc(OCc2ccc3ccccc3n2)cc1` [Example 1, bis(4-(2-quinolylmethoxy)phenyl)methyliminoxyacetic acid], the IC50 in experiment [2] amounted to 68 nM.

For `CC(=NOC(c1ccc(OCc2ccc3ccccc3n2)cc1)c1ccc(OCc2ccc3ccccc3n2)cc1)C(=O)O` [Example 2, 2-(bis(4-(2-quinolylmethoxy)phenyl)methyliminoxy)propionic acid], in experiment [3], the median effective dose (ED50) was found to be 2 mg/kg. Further, the IC50 in experiment [2] was 160 nM.

Turning to `CC(=NOC(c1ccc(OCc2ccc3cc(F)ccc3n2)cc1)c1ccc(OCc2ccc3cc(F)ccc3n2)cc1)C(=O)O` [Example 6, 2-(bis(4-(6-fluoro-2-quinolylmethoxy)phenyl)methyliminoxy)propionic acid], the IC50 in experiment [2] is 40 nM.

In experiment [3], `CC(CCC(=O)O)=NOC(c1ccc(OCc2ccc3ccccc3n2)cc1)c1ccc(OCc2ccc3ccccc3n2)cc1` [Example 7, 4-(bis(4-(2-quinolylmethoxy)phenyl)methyliminoxy)pentanoic acid] had an ED50 of 1 mg/kg. Further, in experiment [2], the IC50 was 50 nM.

As for `CC(/C=C/C(=O)O)=NOC(c1ccc(OCc2ccc3ccccc3n2)cc1)c1ccc(OCc2ccc3ccccc3n2)cc1` [Example 8], the half-inhibitory concentration (IC50) in experiment [2] was 30 nM.
